Laboratory results: US20260091050A1, “ADVANTAGEOUS ANTI-HCV COMBINATION THERAPY” (Atea Pharmaceuticals, Inc., priority 2021, published 2026)

Columns and labels:
[1] = Solubility in biorelevant test medias (water, SGF, FaSSIF, FeSSIF); conditions: for Appearance: solubility test; for Descriptive term: solubility
[2] = Plasma profiles of Compound 1 and metabolite 1-7 after single oral doses of Compound 1-A, cynomolgus monkeys; assay type: in vivo; conditions: monkey
[3] = test system: GT1 HCV; experiment: Multiple dose study, 7 days QD, non-cirrhotic GT1 HCV-infected patients (Part C); assay type: in vivo, human; conditions: Part C; for Mean ± SD HCV RNA change from baseline to 24 h / Mean ± SD HCV RNA maximum change from baseline: N = 6
Description: (§1) Doses were administered as the Compound 1-A salt base. The free base Compound 1 equivalent is often given in parenthesis.
(§2) Part C was a randomized, double-blind, placebo-controlled MAD study divided into three cohorts. […] The dose escalation only proceeded following satisfactory review of the data.
(§3) HCV-infected patients were treatment-naïve with HCV RNA ≥5 log 10 IU/mL. HCV RNA was quantified using COBAS® AmpliPrep TaqMAN® v2.0 with LLQ of 15 IU/mL. Plasma drug levels were measured using LC-MS/MS. […] Mean ages of enrolled subjects were 44, 39, and 56 years in the non-cirrhotic GT1b 600 mg dose cohort, non-cirrhotic GT3 cohort, and the cirrhotic cohort, respectively.

[4] = Head-to-head comparison of Compound 1 and Compound 1-A in dogs: plasma levels; assay type: in vivo; conditions: dog plasma, normalized to a dose of 25 mg/kg; 25 mg/kg
Description: A head-to-head comparison of dogs dosed with Compound 1 and Compound 1-A was conducted.

[5] = Three-part study (Parts C, D, E) of Compound 1-A: overall safety/tolerability and pharmacokinetics; assay type: in vivo, human; conditions: for AUC(0-inf): human, in vivo
Description: as §2
HCV-infected patients were treatment-naïve with HCV RNA ≥5 log 10 IU/mL. […] Plasma drug levels were measured using LC-MS/MS.

[6] = test system: GT1 HCV; experiment: Single ascending dose study of Compound 1-A in GT1-HCV infected patients (Part B); assay type: in vivo, human; conditions: single oral dose of Compound 1-A, plasma
Description: Subjects in Part B received a single dose of Compound 1-A in the fasting state. Patients were confined to the clinic from Day −1 to Day 6.
Part B was initiated after the safety (through Day 5) and plasma pharmacokinetic (through 24 h) data review from Cohort 3a in Part A. Available safety data (through Day 5) and pharmacokinetic data (through 24 h) was reviewed for the first cohort in Part B (Cohort 1b) before enrolling subsequent Part B cohorts. Subsequent Part B cohorts were only dosed following review of available safety and pharmacokinetic data from the respective doses in Part A as well as available safety (through Day 5) from the prior Part B cohorts.
Patients infected with HCV were treatment-naïve, non-cirrhotic GT1-infected subjects with a viral load of ≥5 log10 IU/mL.
Baseline was defined as the mean of Day −1 and Day 1 (pre-dose). […] The mean maximum HCV RNA reduction 24 hours post-dose following a single 300 mg dose was 1.7 log10 IU/mL and this compares to a −2 log 10 IU/mL reduction after 1 day of 400 mg of sofosbuvir monotherapy in GT1a HCV-infected subjects. The mean maximum HCV RNA reduction 24 hours post-dose following a single 100 mg dose was 0.8 log10 IU/mL. The mean 10 maximum HCV RNA reduction was 2.2 log10 IU/mL following a single 400 mg dose.

[7] = Plasma profiles of Compound 1 and metabolite 1-7 after single oral dose of Compound 1-A, Sprague-Dawley rats; assay type: in vivo; conditions: rat, single oral dose of Compound 1-A 500 mg/kg (0.5% CMC, 0.5% Tween 80 in water)
[8] = test system: replicons containing the NS5B sequences from HCV patient plasma samples (GT1a, 1b, 2a, 2b, 3a-1, 3a-2, 4a and 4d); experiment: Replicons containing NS5B sequences from HCV patient plasma samples (clinical isolates); assay type: cell-based
[9] = test system: replicons containing the NS5B sequences from HCV laboratory reference strains (GT1a, 1b, 2a, 3a, 4a and 5a); experiment: Replicons containing NS5B sequences from laboratory reference strains; assay type: cell-based; conditions: laboratory strains of HCV Genotypes 1-5
[10] = test system: GT3 HCV; experiment: 600 mg QD for 7 days in non-cirrhotic GT3 HCV-infected patients (Part D); assay type: in vivo, human; conditions: Part D, 600 mg/day, N = 6
Description: as §1, §2, §3

[11] = test system: HCV NS5A; conditions: wide range of HCV genotypes and common clinical mutants; cited from earlier work
[12] = test system: GT1, GT2, or GT3 HCV; experiment: 600 mg QD for 7 days in Child-Pugh A cirrhotic patients with GT1, GT2 or GT3 HCV (Part E); assay type: in vivo, human; conditions: Part E, 600 mg/day
Description: Doses were administered as the Compound 1-A salt base. The free base Compound 1 equivalent is often given in parenthesis. […]
as §3

[13] = single oral dose of Compound 1-A 30 mg/kg (powder in capsules)
[14] = single oral dose of Compound 1-A 100 mg/kg (powder in capsules)
[15] = single oral dose of Compound 1-A 300 mg/kg (powder in capsules)

CNc1nc(N)nc2c1ncn2[C@@H]1O[C@H](CO[P@@](=O)(N[C@@H](C)C(=O)OC(C)C)Oc2ccccc2)[C@@H](O)[C@@]1(C)F [Compound 1, isopropyl((S)-(((2R,3R,4R,5R)-5-(2-amino-6-(methylamino)-9H-purin-9-yl)-4-fluoro-3-hydroxy-4-methyltetrahydrofuran-2-yl)methoxy)(phenoxy)phosphoryl)-L-alaninate]
Appearance ([1]; FaSSIF): Turbid
Appearance ([1]; FeSSIF): Turbid
Appearance ([1]; SGF): Clear Solution
Appearance ([1]; Water): Clear Solution
Descriptive term ([1]; FaSSIF): Slightly Soluble
Descriptive term ([1]; FeSSIF): Slightly Soluble
Descriptive term ([1]; SGF): Sparingly
Descriptive term ([1]; Water): Slightly Soluble
AUC0-last [2, 13]: 176 ng·h/mL
Cmax [2, 13]: 63.5 ng/mL
Tmax [2, 13]: 30 to 120 min
AUC0-last [2, 14]: 1100 ng·h/mL
Cmax [2, 14]: 783 ng/mL
Tmax [2, 14]: 60 to 120 min
AUC0-last [2, 15]: 1600 ng·h/mL
Cmax [2, 15]: 501 ng/mL
half-life ([3]; daily dosing for 7 days): short half-life
Mean Dose-normalized AUC(0-4 hr) for Compound 1 [4]: 0.2 µM·h
estimated fraction absorbed ([5]; based on urine recovery): ~50%
AUC(0-inf) ([5]; 150 mg/d, AUC Day 1 (AUCinf for Compound 1), Part C, 150 mg/d (n=6), Day 1): 492 ± 141 ng·h/mL
AUC(0-inf) ([5]; 150 mg/d, AUC SS (AUCinf for Compound 1), Part C, 150 mg/d (n=6), steady state): 475 ± 301 ng·h/mL
AUC(0-inf) ([5]; 300 mg/d, AUC Day 1 (AUCinf for Compound 1), Part C, 300 mg/d (n=6), Day 1): 1950 ± 1120 ng·h/mL
AUC(0-inf) ([5]; 300 mg/d, AUC SS (AUCinf for Compound 1), Part C, 300 mg/d (n=6), steady state): 1510 ± 976 ng·h/mL
AUC(0-inf) ([5]; 600 mg/d, AUC Day 1 (AUCinf for Compound 1), Part C, 600 mg/d (n=6), Day 1): 3340 ± 1500 ng·h/mL
AUC(0-inf) ([5]; 600 mg/d, AUC Day 1 (AUCinf for Compound 1), Part D, 600 mg/d (n=6), Day 1): 3330 ± 1240 ng·h/mL
AUC(0-inf) ([5]; 600 mg/d, AUC Day 1 (AUCinf for Compound 1), Part E, 600 mg/d (n=6), Day 1): 3320 ± 1470 ng·h/mL
AUC(0-inf) ([5]; 600 mg/d, AUC SS (AUCinf for Compound 1), Part C, 600 mg/d (n=6), steady state): 4040 ± 2090 ng·h/mL
AUC(0-inf) ([5]; 600 mg/d, AUC SS (AUCinf for Compound 1), Part D, 600 mg/d (n=6), steady state): 3750 ± 2280 ng·h/mL
AUC(0-inf) ([5]; 600 mg/d, AUC SS (AUCinf for Compound 1), Part E, 600 mg/d (n=6), steady state): 3530 ± 1600 ng·h/mL
time within which the parent is metabolized [6]: ≤ 8 h
AUC0-last [7]: 78.2 ng·h/mL
Cmax [7]: 60.8 ng/mL
Tmax [7]: 15 min
EC95 ([8]; HCV GT1): approximately 21.7 ng/mL equivalents of metabolite 1-7
EC95 ([8]; HCV GT2): ~11.6 ng/mL equivalents of metabolite 1-7
EC95 ([8]; HCV GT3): ~17.5 ng/mL equivalents of metabolite 1-7
EC95 values, times lower than sofosbuvir ([8]; clinical isolates of all HCV genotypes tested): 7-33 times
EC95 ([8]; clinical isolates, all tested genotypes): < 80 nM
EC50 values, times lower than (more potent than) sofosbuvir [9]: 6-11 times

COC(=O)N[C@H](C(=O)N1CCC[C@H]1c1ncc(-c2cc(F)c3c(c2)O[C@@H](c2cnc(C4CC4)s2)n2c-3cc3cc(-c4cnc([C@@H]5CCCN5C(=O)[C@@H](NC(=O)OC)C(C)C)[nH]4)ccc32)[nH]1)C(C)C [Compound 2, dimethyl N,N′-([(6S)-6-(2-Cyclopropyl-1,3-thiazol-5-yl)-1-fluoro-6H-indolo[1,2-c][1,3]benzoxazine-3,10-diyl]bis{1H-imidazole-5,2-diyl-(2S)-pyrrolidine-2,1-diyl[(2S)-3-methyl-1-oxobutane-1,2-diyl]})dicarbamate]
Mean ± SD HCV RNA change from baseline to 24 h [10]: 2.3 ± 0.3 log10 IU/mL
Mean ± SD HCV RNA maximum change from baseline [10]: 4.5 ± 0.3 log10 IU/mL
affinity for HCV NS5A [11]: sub- to low-picomolar
Mean ± SD HCV RNA change from baseline to 24 h ([3]; 150 mg/day): 1.2 ± 0.3 log10 IU/mL
Mean ± SD HCV RNA maximum change from baseline ([3]; 150 mg/day): 2.6 ± 1.1 log10 IU/mL
Mean ± SD HCV RNA change from baseline to 24 h ([3]; 300 mg/day): 1.9 ± 0.2 log10 IU/mL
Mean ± SD HCV RNA maximum change from baseline ([3]; 300 mg/day): 4.0 ± 0.4 log10 IU/mL
Mean ± SD HCV RNA change from baseline to 24 h ([3]; 600 mg/day): 2.1 ± 0.2 log10 IU/mL
Mean ± SD HCV RNA maximum change from baseline ([3]; 600 mg/day): 4.4 ± 0.7 log10 IU/mL
Individual HCV RNA maximum change from baseline ([12]; GT1b individual subjects, listed as Compd 2): GT1b: 4.0, log10 IU/mL
Individual HCV RNA maximum change from baseline ([12]; GT2 individual subject): GT2: 4.8 log10 IU/mL
Mean ± SD HCV RNA change from baseline to 24 h ([12]; N = 6): 2.4 ± 0.2 log10 IU/mL
Mean ± SD HCV RNA maximum change from baseline ([12]; N = 6): 4.6 ± 0.5 log10 IU/mL
